# Assays:
# AdipoR2 = target: T1, AdipoR2 (Homo sapiens, UniProt Q86V24); experiment: Radio-ligand saturation binding assay with 125I-ULMA, CHO cells transfected with AdipoR2
# T1 construct: expressed in transfected cells; host or cells: Chinese Hamster Ovary cells (ECACC 85050302), transient transfection with Lipofectamine LTX
# T1 sequence (Q86V24 1-386): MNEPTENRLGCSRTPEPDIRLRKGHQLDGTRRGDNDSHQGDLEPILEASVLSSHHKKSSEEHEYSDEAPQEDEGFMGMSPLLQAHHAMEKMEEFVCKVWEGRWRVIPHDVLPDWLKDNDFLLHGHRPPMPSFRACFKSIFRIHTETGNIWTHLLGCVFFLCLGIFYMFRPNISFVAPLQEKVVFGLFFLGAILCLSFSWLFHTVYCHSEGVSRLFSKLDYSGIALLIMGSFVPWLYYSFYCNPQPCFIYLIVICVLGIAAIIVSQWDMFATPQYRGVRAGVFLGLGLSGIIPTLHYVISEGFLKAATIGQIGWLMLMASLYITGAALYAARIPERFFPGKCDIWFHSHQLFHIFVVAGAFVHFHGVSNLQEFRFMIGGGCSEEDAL
# Experimental: D. CHO cells transfected with empty vector or AdipoR1 or R2 expression vectors were incubated with various concentrations of ^125I-ULMA for 2 h at 4° C. Following washes, cells were lysed and count per minute was analyzed in a gamma counter. 200 fold molar excess of unlabeled ULMA was used for each concentration of radiolabeled ULMA for determining nonspecific activity. Count per minutes were normalized with total cellular protein content followed by further normalization with non-specific activity and plotted. Data is mean±SEM from three experiments performed in triplicates.
# Further validation of AdipoR-ULMA interaction and its quantitation was done using a radio-ligand saturation binding assay using ^125I-ULMA. ULMA was first radiolabeled using chloramines-T method. 10 μl of ^125I (20 MBq; BARC, Mumbai, India) was added to 100 μg GTDF in 5% acetic acid/methanol, then chloramine-T (Sigma, 4 μg in MilliQ H2O) was added, and the mixture was allowed to react at room temperature (24° C.) for 5 min. […] was used for protein estimation using standard Bradford assay and rest of the lysate was used for measuring radioactivity in a gamma-counter (Cole Palmer). The count per minute was normalized with protein concentration and was further normalized with non specific binding, which was determined for every concentration of ^125I-ULMA, using 200 fold molar excess of unlabeled ULMA.
# wistar rats = experiment: Dexamethasone mediated cardiac hypertrophy in rats (heart weight/body weight ratio); format: in vivo, rat
# Experimental: Following 15 d treatment with indicated compounds or vehicle, animals were euthanized and heart weight and body weight were measured and heart weight/body weight ratio were calculated and plotted. Data represents mean+/−SEM. N=6. *p<0.05 as determined by student's t-test.
# Blood was collected from cardiac punctures.
# Therefore, the heart weight/body weight ratio was measured in these rats (described in Example 6A-C).
smiles,measurement,setting,value
"O=C1c2c(cc(O)c([C@@H]3O[C@H](CO)[C@@H](O)[C@H](O)[C@H]3O)c2O)O[C@@H](c2ccc(O)c(O)c2)[C@@H]1O [ULMA, (2S,3S)-(+)-3′,4′,5,7-tetrahydroxydihydroflavonol-6-C-β-D-glucopyranoside]",maximum binding (BMAX),AdipoR2,3950 fmol/mg of protein
same,Kd,"AdipoR2; 2 hours, ice cold, read-out: dissociation constant (Kd)",0.326 µM
same,Dex-caused increase of heart/body weight ratio,wistar rats; Dex + ULMA,significantly alleviated this increase
same,heart weight/body weight ratio in control animals,wistar rats; ULMA alone,did not change
